# According to publication PMC9794428, “Enzyme Inhibitory Activities of Extracts and Carpachromene from the Stem of Ficus benghalensis” (BioMed Research International, 2022):
# How the values were obtained:
# PDE-1 = system: T1, PDE-1; test: bis(p-nitrophenyl) substrate hydrolysis, […] nm; type: biochemical; conditions: 0.33 mM bis(p-nitrophenyl) substrate, Mg acetate, Tris-HCl pH 8.8, 37 °C
# T1 construct: gene phosphodiesterase I; substrate bis(p-nitrophenyl) phosphate type, pH 8.8 and Mg acetate fit the usual snake venom phosphodiesterase I, not the docking model human PDE1B (5W6E)
# [1] = biological target: T2, mushroom tyrosine [tyrosinase]; test: L-DOPA oxidation, absorbance […] nm; type: biochemical; conditions: L-DOPA (printed L-DOP) substrate, phosphate buffer, 37 °C
# T2 construct: gene PPO1; docking model 1WX2 is another species (Streptomyces)
Structure (SMILES),IC50 (PDE-1; chelator used as standard),IC50 [1],IC50 (PDE-1)
O=C(O)CN(CCN(CC(=O)O)CC(=O)O)CC(=O)O [EDTA],264.1 ± 1.09 µM,–,–
O=c1cc(CO)occ1O [Kojic acid],–,44 ± 1.1 µM,–
"CC1(C)C=Cc2c(cc3oc(-c4ccc(O)cc4)cc(=O)c3c2O)O1 [compound 1, carpachromene]",–,40.5 ± 2 µM,209.4 ± 1.87 µM
